pIC50: −log10 of the molar value. Read-outs that look alike come from different tables or passages of the source.
How the values were obtained:
JAK2 = JAK2 (Homo sapiens (Human), UniProt O60674); experiment: pSTAT5 Cell Assay (MSD, TF1 cells); format: cell-based
Procedure, shortened: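 Serum-starved TF1 cells were pretreated with compound for 1 h (10-point four-fold series from 10 μM), then stimulated with 30 ng/mL IL-3 for 15 min. pSTAT5 in lysates was measured by MSD immunoassay. IC50 came from a 4-parameter logistic fit.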

JH2 domain of human Tyk2 = JH2 domain of human Tyk2 (Homo sapiens (Human), UniProt P29597); experiment: JH2 Biochemical Assay (TR-FRET probe displacement); format: binding
Chain of JH2 domain of human Tyk2 (P29597 575-876): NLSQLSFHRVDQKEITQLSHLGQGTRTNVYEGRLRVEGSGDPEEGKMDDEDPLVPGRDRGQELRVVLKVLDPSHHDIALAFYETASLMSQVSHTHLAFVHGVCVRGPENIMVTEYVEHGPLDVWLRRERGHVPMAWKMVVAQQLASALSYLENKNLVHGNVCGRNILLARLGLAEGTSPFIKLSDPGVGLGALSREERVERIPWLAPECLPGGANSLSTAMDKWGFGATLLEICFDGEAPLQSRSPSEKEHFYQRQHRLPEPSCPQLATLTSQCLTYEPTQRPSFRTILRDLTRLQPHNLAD

JAK1 = JAK1 (Homo sapiens (Human), UniProt P23458); experiment: pSTAT3 Cell Assay (MSD, TF1 cells); format: cell-based
Chain of JAK1 (P23458 whole entry): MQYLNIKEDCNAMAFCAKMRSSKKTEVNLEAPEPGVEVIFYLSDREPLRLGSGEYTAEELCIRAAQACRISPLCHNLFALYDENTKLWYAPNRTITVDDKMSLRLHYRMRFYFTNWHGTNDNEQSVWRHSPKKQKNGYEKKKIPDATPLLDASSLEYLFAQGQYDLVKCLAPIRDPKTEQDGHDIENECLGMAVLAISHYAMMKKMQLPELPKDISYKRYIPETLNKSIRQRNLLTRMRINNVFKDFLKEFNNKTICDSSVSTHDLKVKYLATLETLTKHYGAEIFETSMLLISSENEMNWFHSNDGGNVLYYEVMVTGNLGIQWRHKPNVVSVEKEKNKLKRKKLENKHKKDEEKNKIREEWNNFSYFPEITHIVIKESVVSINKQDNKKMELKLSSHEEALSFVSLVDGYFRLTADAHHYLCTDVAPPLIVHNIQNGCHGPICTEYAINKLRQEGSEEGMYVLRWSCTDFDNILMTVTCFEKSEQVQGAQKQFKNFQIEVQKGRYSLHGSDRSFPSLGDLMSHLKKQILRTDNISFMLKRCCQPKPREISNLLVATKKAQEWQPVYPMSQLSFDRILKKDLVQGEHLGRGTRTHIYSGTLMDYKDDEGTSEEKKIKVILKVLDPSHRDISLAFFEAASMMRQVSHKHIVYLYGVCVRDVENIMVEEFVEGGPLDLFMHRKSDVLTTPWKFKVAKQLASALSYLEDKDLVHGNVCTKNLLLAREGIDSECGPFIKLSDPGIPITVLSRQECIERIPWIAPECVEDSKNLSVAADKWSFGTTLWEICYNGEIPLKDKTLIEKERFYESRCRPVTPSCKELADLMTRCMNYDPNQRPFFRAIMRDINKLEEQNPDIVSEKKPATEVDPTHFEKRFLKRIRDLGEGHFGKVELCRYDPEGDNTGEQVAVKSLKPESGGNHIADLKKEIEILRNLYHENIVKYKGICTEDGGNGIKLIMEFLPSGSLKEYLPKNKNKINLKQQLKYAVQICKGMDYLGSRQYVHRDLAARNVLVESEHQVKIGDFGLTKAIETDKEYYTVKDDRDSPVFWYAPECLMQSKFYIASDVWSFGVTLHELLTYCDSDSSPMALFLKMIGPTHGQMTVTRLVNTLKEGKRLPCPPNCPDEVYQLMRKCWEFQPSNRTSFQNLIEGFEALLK
Procedure, shortened: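 Readout is pSTAT3 in lysates, quantified on an MSD plate assay using anti-STAT3 antibodies. Before lysis, TF1 cells had been serum-starved, exposed to compound for 1 hour across ten four-fold dilutions starting at 10 μM, and given IL-6 for 15 minutes.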

Tyk2 = Tyk2 (Homo sapiens (Human), UniProt P29597); experiment: pSTAT4 Cell Assay (MSD, NK92 cells); format: cell-based
Chain of Tyk2 (P29597 whole entry, the tested form may be a part): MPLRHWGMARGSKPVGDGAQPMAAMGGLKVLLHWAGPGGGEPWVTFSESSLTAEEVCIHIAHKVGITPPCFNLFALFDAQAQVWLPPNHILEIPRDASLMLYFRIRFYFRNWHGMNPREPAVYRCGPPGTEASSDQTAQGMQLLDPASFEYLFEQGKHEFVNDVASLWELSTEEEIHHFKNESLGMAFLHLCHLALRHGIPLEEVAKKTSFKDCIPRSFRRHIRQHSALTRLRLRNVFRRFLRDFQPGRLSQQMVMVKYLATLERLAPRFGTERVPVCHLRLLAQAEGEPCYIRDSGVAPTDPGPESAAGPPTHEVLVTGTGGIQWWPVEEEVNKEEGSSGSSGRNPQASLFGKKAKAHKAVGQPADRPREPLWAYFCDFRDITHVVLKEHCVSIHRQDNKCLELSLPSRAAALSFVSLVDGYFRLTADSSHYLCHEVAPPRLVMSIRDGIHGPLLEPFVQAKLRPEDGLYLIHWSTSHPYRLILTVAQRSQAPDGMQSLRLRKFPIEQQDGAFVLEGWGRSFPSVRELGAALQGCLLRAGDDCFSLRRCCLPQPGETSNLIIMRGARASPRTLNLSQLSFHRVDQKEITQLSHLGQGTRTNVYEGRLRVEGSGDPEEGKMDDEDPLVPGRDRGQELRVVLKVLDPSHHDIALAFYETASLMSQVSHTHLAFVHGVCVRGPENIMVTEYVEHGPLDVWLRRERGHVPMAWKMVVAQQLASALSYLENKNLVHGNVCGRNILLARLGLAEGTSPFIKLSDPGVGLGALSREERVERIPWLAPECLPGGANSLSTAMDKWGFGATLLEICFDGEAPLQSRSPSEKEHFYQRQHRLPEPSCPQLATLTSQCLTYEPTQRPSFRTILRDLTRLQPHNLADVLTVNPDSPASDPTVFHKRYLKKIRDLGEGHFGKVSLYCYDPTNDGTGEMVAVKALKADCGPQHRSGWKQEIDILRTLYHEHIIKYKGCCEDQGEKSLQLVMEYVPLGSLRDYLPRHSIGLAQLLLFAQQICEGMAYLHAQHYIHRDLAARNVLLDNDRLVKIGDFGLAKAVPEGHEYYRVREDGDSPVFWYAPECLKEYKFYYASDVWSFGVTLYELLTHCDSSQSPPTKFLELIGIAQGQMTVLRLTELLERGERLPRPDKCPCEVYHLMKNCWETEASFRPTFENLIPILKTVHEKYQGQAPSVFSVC

[1] = TR-FRET probe displacement, JH2 domain of human Tyk2
[2] = JH2 domain of human Tyk2, TR-FRET probe displacement

Chain of JAK2 (O60674 whole entry): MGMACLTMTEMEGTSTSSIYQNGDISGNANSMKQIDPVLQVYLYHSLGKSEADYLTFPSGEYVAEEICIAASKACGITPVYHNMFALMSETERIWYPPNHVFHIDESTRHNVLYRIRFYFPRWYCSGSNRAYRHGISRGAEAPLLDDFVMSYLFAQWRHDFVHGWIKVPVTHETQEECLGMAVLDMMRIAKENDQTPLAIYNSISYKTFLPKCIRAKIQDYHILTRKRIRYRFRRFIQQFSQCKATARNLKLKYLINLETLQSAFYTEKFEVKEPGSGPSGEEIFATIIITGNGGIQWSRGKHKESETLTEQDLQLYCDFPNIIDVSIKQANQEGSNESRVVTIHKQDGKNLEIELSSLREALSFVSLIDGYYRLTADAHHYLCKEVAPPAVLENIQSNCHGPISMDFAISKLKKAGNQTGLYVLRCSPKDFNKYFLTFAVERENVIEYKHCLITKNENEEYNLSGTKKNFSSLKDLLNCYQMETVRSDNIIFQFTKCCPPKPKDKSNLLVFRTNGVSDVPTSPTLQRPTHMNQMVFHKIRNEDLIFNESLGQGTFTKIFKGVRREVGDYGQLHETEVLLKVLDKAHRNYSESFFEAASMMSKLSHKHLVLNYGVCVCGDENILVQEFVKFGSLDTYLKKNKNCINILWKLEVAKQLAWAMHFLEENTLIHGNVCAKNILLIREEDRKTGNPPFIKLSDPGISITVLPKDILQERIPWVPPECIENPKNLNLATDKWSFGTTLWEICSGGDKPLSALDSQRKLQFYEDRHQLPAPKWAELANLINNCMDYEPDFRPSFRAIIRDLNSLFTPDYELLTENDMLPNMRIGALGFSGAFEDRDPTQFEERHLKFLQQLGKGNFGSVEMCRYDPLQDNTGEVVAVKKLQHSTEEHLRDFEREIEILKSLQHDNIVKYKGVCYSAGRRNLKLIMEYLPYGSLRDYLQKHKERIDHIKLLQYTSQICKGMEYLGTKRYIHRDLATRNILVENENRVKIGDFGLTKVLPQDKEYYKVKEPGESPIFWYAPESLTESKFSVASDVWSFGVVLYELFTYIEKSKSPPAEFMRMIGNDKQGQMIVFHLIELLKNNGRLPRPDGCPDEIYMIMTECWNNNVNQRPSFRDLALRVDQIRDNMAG

Row | Compound | pIC50 (JAK2; IL-3 stimulation, MSD) | pIC50 (JH2 domain of human Tyk2; [1]) | pIC50 (JAK1; IL-6 stimulation, MSD) | pIC50 (Tyk2; MSD) | pIC50 (JAK2; IL-3 stimulated, MSD) | pIC50 (JH2 domain of human Tyk2; [2]) | pIC50 (JAK1; IL-6 stimulated, MSD) | pIC50 (JAK2; IL-3 stimulated) | pIC50 (JH2 domain of human Tyk2; TR-FRET probe displacement, JH2 domain) | pIC50 (JAK1; IL-6 stimulated) | pIC50 (Tyk2)
1 | COc1cc(Nc2cc(NC(C)=O)ncc2-c2ccn(C)n2)nc(C(C)(F)F)n1 [Example 50, N-(4-((2-(1,1-difluoroethyl)-6-methoxypyrimidin-4-yl)amino)-5-(1-methyl-1H-pyrazol-3-yl)pyridin-2-yl)acetamide] | ≤ 6.00 | ≥ 8.00 | ≤ 6.00 | ≥ 8.00 | – | – | – | – | – | – | –
2 | COCc1ccc(-c2cnc(NC(C)=O)cc2Nc2cc(C)nc(C(C)(F)F)n2)nc1 [Example 634, N-(4′-((2-(1,1-difluoroethyl)-6-methylpyrimidin-4-yl)amino)-5-(methoxymethyl)-[2,3′-bipyridin]-6′-yl)acetamide] | – | – | – | ≥ 8.00 | ≤ 6.00 | ≥ 8.00 | ≤ 6.00 | – | – | – | –
3 | COCc1ccc(-c2cnc(NC(C)=O)cc2Nc2ccnc(C(C)(F)F)n2)nc1 [Example 851, N-(4′-((2-(1,1-difluoroethyl)pyrimidin-4-yl)amino)-5-(methoxymethyl)-[2,3′-bipyridin]-6′-yl)acetamide] | – | – | – | – | – | – | – | ≤ 6.00 | ≥ 8.00 | ≤ 6.00 | ≥ 8.00
4 | COCCn1ncc(-c2cnc(NC(C)=O)cc2Nc2cc(C)nc(C(C)(F)F)n2)n1 [Example 260, N-(4-((2-(1,1-difluoroethyl)-6-methylpyrimidin-4-yl)amino)-5-(2-(2-methoxyethyl)-2H-1,2,3-triazol-4-yl)pyridin-2-yl)acetamide] | ≤ 6.00 | ≥ 8.00 | ≤ 6.00 | ≥ 8.00 | – | – | – | – | – | – | –
5 | CC(=O)Nc1cc(Nc2cc(OC3CC3)nc(C(C)(F)F)n2)c(OCC2COCCO2)cn1 (centres unmarked) [Example 445, N-(5-((1,4-dioxan-2-yl)methoxy)-4-((6-cyclopropoxy-2-(1,1-difluoroethyl)pyrimidin-4-yl)amino)pyridin-2-yl)acetamide] | – | – | – | ≥ 8.00 | ≤ 6.00 | ≥ 8.00 | ≤ 6.00 | – | – | – | –

— US20260028365A1 (BIOGEN MA INC., priority 2022, published 2026)
